Details: Liquid; for mass density: Vibrating Wire Viscometer; for viscosity: Vibrating wire viscometry

CC(C)OC(C)C [diisopropyl ether]
Details	mass density [kg/m3]	viscosity [mPa·s]
243.15 K, 100 kPa	772.385	0.6191
243.15 K, 4660 kPa	776.195	0.6466
243.15 K, 10070 kPa	780.42	0.6826
243.15 K, 15370 kPa	784.377	0.7177
243.15 K, 20860 kPa	788.392	0.7529
253.15 K, 100 kPa	762.804	0.5343
253.15 K, 4720 kPa	766.842	0.5601
253.15 K, 9990 kPa	771.35	0.5898
253.15 K, 15400 kPa	775.704	0.6187
253.15 K, 20740 kPa	779.692	0.65
263.15 K, 100 kPa	753.037	0.4687
263.15 K, 4470 kPa	757.298	0.4896
263.15 K, 9490 kPa	761.805	0.5141
263.15 K, 14490 kPa	766.126	0.5388
263.15 K, 19640 kPa	770.142	0.5638
273.15 K, 100 kPa	743.309	0.4142
273.15 K, 4690 kPa	748.026	0.4344
273.15 K, 10010 kPa	753.179	0.4579
273.15 K, 15290 kPa	757.99	0.4815
273.15 K, 20420 kPa	762.359	0.5042
283.15 K, 100 kPa	733.393	0.3689
283.15 K, 4700 kPa	738.525	0.3877
283.15 K, 10100 kPa	744.147	0.4088
283.15 K, 15460 kPa	749.321	0.4306
283.15 K, 21360 kPa	754.612	0.456
293.15 K, 100 kPa	723.318	0.3311
293.15 K, 4470 kPa	728.638	0.3474
293.15 K, 9590 kPa	734.393	0.3671
293.15 K, 14750 kPa	739.779	0.3855
293.15 K, 20450 kPa	745.301	0.4079
303.15 K, 100 kPa	713.113	0.299
303.15 K, 4440 kPa	718.817	0.3124
303.15 K, 9500 kPa	725.014	0.331
303.15 K, 14650 kPa	730.787	0.3496
303.15 K, 19650 kPa	735.942	0.3668
313.15 K, 100 kPa	702.804	0.2703
313.15 K, 4840 kPa	709.502	0.2869
313.15 K, 10140 kPa	716.438	0.3038
313.15 K, 15550 kPa	722.843	0.3213
313.15 K, 21490 kPa	729.298	0.3414
323.15 K, 100 kPa	692.225	0.2468
323.15 K, 4760 kPa	699.461	0.2615
323.15 K, 10370 kPa	707.408	0.2776
323.15 K, 15480 kPa	713.832	0.2946
323.15 K, 20780 kPa	720.04	0.311
333.15 K, 100 kPa	681.435	0.2254
333.15 K, 4750 kPa	689.427	0.2389
333.15 K, 10360 kPa	697.963	0.2554
333.15 K, 15670 kPa	705.137	0.2716
333.15 K, 20890 kPa	711.63	0.2848
343.15 K, 130 kPa	670.401	0.2064
343.15 K, 4390 kPa	678.519	0.2183
343.15 K, 9530 kPa	687.069	0.2335
343.15 K, 14740 kPa	694.891	0.2471
343.15 K, 21230 kPa	703.496	0.2649
353.15 K, 200 kPa	659.151	0.1889
353.15 K, 4830 kPa	668.72	0.203
353.15 K, 10320 kPa	678.629	0.2176
353.15 K, 15760 kPa	687.163	0.2324
353.15 K, 21100 kPa	694.71	0.2466
363.15 K, 230 kPa	647.498	0.1736
363.15 K, 4730 kPa	657.763	0.1871
363.15 K, 10170 kPa	668.51	0.2014
363.15 K, 15830 kPa	678.192	0.2152
363.15 K, 20860 kPa	685.734	0.2294
373.15 K, 310 kPa	635.452	0.1602
373.15 K, 4730 kPa	646.883	0.1721
373.15 K, 9630 kPa	657.52	0.1854
373.15 K, 15600 kPa	668.559	0.2008
373.15 K, 21680 kPa	678.358	0.2152

— the NIST ThermoML archive (doi:10.1021/je8005369)
